Assays:
PPARα = biological target: T1, PPARα (Homo sapiens, UniProt Q07869); test: In vitro activation of PPARα (cells containing PPAR, EC50); assay type: cell-based; settings: n ≥ 8, 24 h; for EC50: read-out: EC50 ± SD PPARα
T1 construct: expressed in transfected cells
T1 sequence (Q07869 1-468): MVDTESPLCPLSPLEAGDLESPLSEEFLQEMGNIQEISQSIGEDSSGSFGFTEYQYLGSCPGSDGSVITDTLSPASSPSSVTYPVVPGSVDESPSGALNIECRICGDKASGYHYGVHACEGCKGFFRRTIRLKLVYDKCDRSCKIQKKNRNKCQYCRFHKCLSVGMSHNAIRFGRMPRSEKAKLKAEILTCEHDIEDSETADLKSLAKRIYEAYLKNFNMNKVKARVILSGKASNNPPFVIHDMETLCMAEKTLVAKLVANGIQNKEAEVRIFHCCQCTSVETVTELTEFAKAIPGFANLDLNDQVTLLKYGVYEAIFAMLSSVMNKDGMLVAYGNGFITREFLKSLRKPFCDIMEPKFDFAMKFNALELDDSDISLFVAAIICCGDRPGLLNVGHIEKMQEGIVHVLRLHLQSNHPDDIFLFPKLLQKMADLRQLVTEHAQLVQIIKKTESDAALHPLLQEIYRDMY
Method: (§1) According to the literature, the cells containing PPAR (α, β and γ) were obtained and transfected into 96-well plates the day before for cells culture. Transfection was performed according to the instructions of human PPAR enzyme-linked immunoassay. […] After 24 h, the drugs were added, and 20 μl of MTT was added to each well for another 6 h, and the cell liquid was collected by removing the culture medium, and 150 μl of DMSO was added to each hole. And the absorbance value (A) of each hole was measured under the wavelength of 460 nm.

PPARγ = biological target: T2, PPARγ (Homo sapiens, UniProt P37231); test: In vitro activation of PPARγ (cells containing PPAR, EC50); assay type: cell-based; settings: n ≥ 8; 24 h; read-out: EC50 ± SD PPARγ
T2 construct: expressed in transfected cells
T2 sequence (P37231 1-505): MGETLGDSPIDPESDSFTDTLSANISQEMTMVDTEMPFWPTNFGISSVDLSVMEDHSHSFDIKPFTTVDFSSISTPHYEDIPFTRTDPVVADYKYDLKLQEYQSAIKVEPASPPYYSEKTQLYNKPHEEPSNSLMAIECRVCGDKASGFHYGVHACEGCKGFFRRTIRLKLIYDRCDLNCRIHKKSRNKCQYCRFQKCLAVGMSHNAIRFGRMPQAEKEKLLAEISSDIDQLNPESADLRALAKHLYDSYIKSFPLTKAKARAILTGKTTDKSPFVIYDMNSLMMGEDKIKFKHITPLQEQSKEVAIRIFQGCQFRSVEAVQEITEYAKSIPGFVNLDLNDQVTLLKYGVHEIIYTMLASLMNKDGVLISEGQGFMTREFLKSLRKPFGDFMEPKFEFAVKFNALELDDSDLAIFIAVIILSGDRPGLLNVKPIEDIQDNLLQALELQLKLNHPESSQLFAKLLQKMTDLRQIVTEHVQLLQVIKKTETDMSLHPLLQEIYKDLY
Method: as §1

[1] = Dissociation degree (pKa); assay type: physicochemical
Text: (§2) Drug in vitro experiment was one of the basic contents to evaluate drugs activity, and it was a necessary approach to research drugs. Drugs’ efficacy was often affected by some physical and chemical properties of compounds, such as lipid–water partition coefficient (log p), and dissociation degree (pKa). […] In Table 1, we could find that target compounds were fat-soluble. The fat-soluble compounds were favourable for drugs absorption, and drugs were easy to enter the cells. […] The pKa will affect the absorption and delivery of the drugs, different environmental (acid and alkalinity) medicine may be different, sometimes exists in the form of ions, sometimes exists in the form of molecules. Usually in the form of ion drugs has no effect. Therefore, it was necessary to study the dissociation degree (pKa) of drugs to study the pharmacodynamics. […] After the physical and chemical properties were studied, the biological activity was studied. […] After that, the target compounds 6a, 6e, 6f, 6g and 6i had good biological activity and were preliminarily screened out for further study on PPARγ receptor agonist activity (Figure 5).

HUVEC cells = test: Cell survival experiment (cytotoxicity); assay type: cell-based; settings: for Cell survival rate: HUVEC cells
Method: (§3) (1) Glucose tolerance test: The healthy mice (20 ± 2 g) were selected. After 1 week of acclimation, mice with no body surface damage, good general condition and flexible reaction were selected for the experiment. The test compounds were dissolved with DMSO, and were given a dose volume of 0.2 ml 10 g^−1, and a dose of 10 mg kg^−1, and given by gavage (oral) once a day. […] The mice were given the drug for 10 d, and after the last dose, the mice fasted for 12 h. The next day, blood was collected from the tail vein of the mice before and after the sugar load for 1 h and 2 h, and the blood glucose level of the mice before and after the sugar load was measured by the glucometer. […] The 12 h of fasting after the last administration, blood was taken from the orbital venous plexus (used to measure the blood glucose level after fasting). Each group was immediately given a subcutaneous injection of 0.2 μg kg^−1 of insulin. After 1 h and 2 h of injection, blood was taken again. (3) Cell survival experiment: The HUVEC cells were inoculated on the 96-well plate at the initial concentration of 3 × 10^3 cells/holes, and 100 μl RPMI 1640 medium were added to each hole. At 5% CO2 and 37 °C cell cultivation in 24 h, every pore solution in different concentrations. […] And determine the hole under 460 nm wavelength absorbance value (A).

[2] = Lipid–water partition coefficient (log p); assay type: physicochemical
Text: as §2

[3] = Acute toxicity test (LD50); assay type: in vivo; settings: oral administration; n ≥ 3
healthy mice [4] = test: Oral glucose tolerance test; assay type: in vivo
Method: In vivo experiments, glucose tolerance test, insulin tolerance test, cell survival experiment and acute toxicity were used as the test indicators (Tables 2, [3] and [4]). In Table 2, we chose dose 10 mg kg^−1 d^−1 and used oral administration. […] The mice were given the drug for 10 d, blood was collected from the tail vein of the mice before and after the sugar load for 1 h and 2 h, and the blood glucose level of the mice before and after the sugar load was measured by the glucometer.
as §3

healthy mice [5] = test: Insulin tolerance test (blood glucose under insulin load); assay type: in vivo
Method: as §3

PPARβ = biological target: T3, PPARβ (Homo sapiens, UniProt Q03181); test: In vitro activation of PPARβ (cells containing PPAR, EC50); assay type: cell-based; settings: n ≥ 8; 24 h; read-out: EC50 ± SD PPARβ
T3 construct: expressed in transfected cells
T3 sequence (Q03181 1-441): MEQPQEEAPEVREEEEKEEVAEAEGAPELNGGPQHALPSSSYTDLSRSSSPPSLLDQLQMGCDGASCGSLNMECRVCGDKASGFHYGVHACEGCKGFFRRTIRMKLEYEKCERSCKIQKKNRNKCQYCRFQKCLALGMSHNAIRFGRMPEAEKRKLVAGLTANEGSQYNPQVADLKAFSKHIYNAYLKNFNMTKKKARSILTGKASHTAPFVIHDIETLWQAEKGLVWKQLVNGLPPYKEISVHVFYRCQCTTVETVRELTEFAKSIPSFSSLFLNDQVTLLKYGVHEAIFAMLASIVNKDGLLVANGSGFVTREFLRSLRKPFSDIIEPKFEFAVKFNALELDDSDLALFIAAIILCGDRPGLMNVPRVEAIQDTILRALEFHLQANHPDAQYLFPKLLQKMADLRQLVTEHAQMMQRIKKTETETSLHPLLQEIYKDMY
Method: as §1

| SMILES | EC50 (PPARγ) [µM] | pKa [1] | logP [2] | EC50 (PPARα) [µM] | EC50 (PPARβ) [µM] | further results |
| --- | --- | --- | --- | --- | --- | --- |
| O=C1NC(=O)C(Cc2ccc(OCCNC(=O)c3ccccc3)cc2)S1 (stereo not shown) [Compound 6a, N-(2–(4-((2,4-dioxothiazolidin-5-yl)methyl)phenoxy)ethyl) benzamide] | 0.08 ± 0.02 | 10.4 | 2.68 | – | – | EC50 ± SD PPARα (PPARα): ia^b; Cytotoxic effect (in words) (HUVEC cells; 10^−3–10^−2 mol L^−1): no obvious cytotoxic effect; Cell survival rate (HUVEC cells; 10^−2 mol l^−1): 93.1 ± 1.21%; Cell survival rate (HUVEC cells; 10^−3 mol l^−1): 98.1 ± 0.28%; Cell survival rate (HUVEC cells; 10^−4 mol l^−1): 99.3 ± 0.26%; Cell survival rate (HUVEC cells; 10^−5 mol l^−1): 99.9 ± 0.11%; Cell survival rate (HUVEC cells; 10^−6 mol l^−1): 100%; LD50 ± SD [3]: 2313.6 ± 1.26 mg/kg; Blood glucose levels 1 h (healthy mice [4]; 10 mg kg^−1 d^−1 oral for 10 d, 1 h after sugar load): 6.342 ± 2.011 mmol/L; Blood glucose levels 2 h (healthy mice [4]; 10 mg kg^−1 d^−1 oral for 10 d, 2 h after sugar load): 3.368 ± 1.341 mmol/L; Blood glucose levels 0 h (healthy mice [4]; 10 mg kg^−1 d^−1 oral for 10 d, fasted 12 h, before sugar load): 3.376 ± 0.361 mmol/L; Effect in glucose tolerance test (in words) (healthy mice [4]; 10 mg kg^−1 d^−1 oral, 10 d): good resistance activation to glucose; Effect in insulin tolerance test (in words) (healthy mice [5]; 10 mg kg^−1 d^−1): good resistance activation to insulin; Blood glucose levels 1 h (healthy mice [5]; 10 mg kg^−1 d^−1 for 15 d, 1 h after s.c. insulin 0.2 μg kg^−1): 1.801 ± 0.531 mmol/L; Blood glucose levels 2 h (healthy mice [5]; 10 mg kg^−1 d^−1 for 15 d, 2 h after s.c. insulin 0.2 μg kg^−1): 2.498 ± 1.136 mmol/L; Blood glucose levels 0 h (healthy mice [5]; 10 mg kg^−1 d^−1 for 15 d, fasted 12 h, before insulin): 5.644 ± 1.035 mmol/L |
| O=C1NC(=O)C(Cc2ccc(OCCNC(=O)c3ccccn3)cn2)S1 (stereo not shown) [Compound 6d, N-(2-((6-((2,4-dioxothiazolidin-5-yl)methyl)pyridin-3-yl)oxy)ethyl) picolinamide] | 3.22 ± 0.65 | 9.78 | 1.38 | – | 12.2 ± 1.21 | – |
| O=C1NC(=O)C(Cc2ccc(OCCNC(=O)c3ccc(O)cn3)cn2)S1 (stereo not shown) [Compound 6l, N-(2-((6-((2,4-dioxothiazolidin-5-yl)methyl)pyridin-3-yl)oxy)ethyl)-5-hydroxypicolinamide] | 2.68 ± 0.46 | 8.58 | 1.45 | 9.34 ± 1.01 | 10.1 ± 1.12 | – |

Continued by falling EC50 (PPARγ), values first:

| EC50 (PPARγ) [µM] | pKa [1] | logP [2] | EC50 (PPARα) [µM] | EC50 (PPARβ) [µM] | SMILES | further results |
| --- | --- | --- | --- | --- | --- | --- |
| 1.29 ± 0.53 | 10.4 | 1.77 | 12.9 ± 1.29 | 9.18 ± 0.89 | O=C1NC(=O)C(Cc2ccc(OCCNC(=O)c3ccccc3)cn2)S1 (stereo not shown) [Compound 6b, N-(2-((6-((2,4-dioxothiazolidin-5-yl)methyl)pyridin-3-yl)oxy)ethyl) benzamide] | – |
| 0.34 ± 0.15 | 9.01 | 2.11 | – | 14.5 ± 1.2 | O=C1NC(=O)C(Cc2ccc(OCCNC(=O)c3ccc(O)cc3)cn2)S1 (stereo not shown) [Compound 6j, N-(2-((6-((2,4-dioxothiazolidin-5-yl)methyl)pyridin-3-yl)oxy)ethyl)-4-hydroxybenzamide] | – |

Reference: PMC6522930, “Design, synthesis and biological activity evaluation of a new class of 2,4-thiazolidinedione compounds as insulin enhancers” (Journal of Enzyme Inhibition and Medicinal Chemistry, 2019)
